Measured values: PMC8301025 (Biology, 2021)

Biological target: T1, CLas GMPS (guanosine 5′-monophosphate synthetase)
T1 construct: gene guaA
Type: biochemical, Candidatus Liberibacter asiaticus

Row | SMILES | Ki [µM]
1 | CCN(CCCOc1ccc2c(Nc3cc(CC(=O)Nc4cccc(F)c4)n[nH]3)ncnc2c1)CCOP(=O)(O)O [Compound1334, AZD1152] | 4.05
2 | Nc1nc(=O)c2nc(CNc3ccc(C(=O)N[C@@H](CCC(=O)O)C(=O)O)cc3)cnc2[nH]1 [Compound5481, folic acid] | 52
